Measured values from PMC3966854, “Probenecid Blocks Human P2X7 Receptor-Induced Dye Uptake via a Pannexin-1 Independent Mechanism” (PLoS ONE, 2014).

What was measured:
Format in all cases: cell-based
human P2X7 receptor [1] = target: T1, human P2X7 receptor (Homo sapiens, UniProt Q99572); test: Fluo-4 calcium influx and ethidium dye uptake; complete block at […]; set-up: gene P2RX7; human P2X7 stably expressed in HEK-293 cells
T1 sequence (Q99572 1-595): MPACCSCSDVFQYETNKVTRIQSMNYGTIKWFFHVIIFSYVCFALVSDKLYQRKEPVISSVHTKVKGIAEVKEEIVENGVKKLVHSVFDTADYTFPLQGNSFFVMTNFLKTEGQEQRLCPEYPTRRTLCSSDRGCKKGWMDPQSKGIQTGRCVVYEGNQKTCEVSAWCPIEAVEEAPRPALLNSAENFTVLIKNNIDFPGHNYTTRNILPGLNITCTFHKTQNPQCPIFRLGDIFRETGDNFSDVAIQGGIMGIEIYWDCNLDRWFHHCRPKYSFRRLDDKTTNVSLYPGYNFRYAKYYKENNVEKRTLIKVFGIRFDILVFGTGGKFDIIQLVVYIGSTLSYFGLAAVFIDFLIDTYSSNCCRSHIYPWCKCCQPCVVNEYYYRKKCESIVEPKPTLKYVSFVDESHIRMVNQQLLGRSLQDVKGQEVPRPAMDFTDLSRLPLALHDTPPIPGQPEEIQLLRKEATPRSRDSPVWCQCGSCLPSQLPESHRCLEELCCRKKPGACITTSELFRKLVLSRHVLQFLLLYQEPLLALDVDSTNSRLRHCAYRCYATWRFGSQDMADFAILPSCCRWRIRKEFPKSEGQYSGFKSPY

human P2X7 receptor [2] = target: T1, human P2X7 receptor; test: ATP-induced ethidium dye uptake; complete block at […]; set-up: gene P2RX7; human P2X7 stably expressed in HEK-293 cells
rat P2X7 = target: T2, rat P2X7 (Rattus norvegicus, UniProt Q64663); test: ATP-induced ethidium dye uptake, […] inhibition at […]; settings: read-out: % inhibition at 2.5 mM
T2 construct: gene P2rx7; rat P2X7 stably expressed in HEK-293 cells
T2 sequence (Q64663 1-595): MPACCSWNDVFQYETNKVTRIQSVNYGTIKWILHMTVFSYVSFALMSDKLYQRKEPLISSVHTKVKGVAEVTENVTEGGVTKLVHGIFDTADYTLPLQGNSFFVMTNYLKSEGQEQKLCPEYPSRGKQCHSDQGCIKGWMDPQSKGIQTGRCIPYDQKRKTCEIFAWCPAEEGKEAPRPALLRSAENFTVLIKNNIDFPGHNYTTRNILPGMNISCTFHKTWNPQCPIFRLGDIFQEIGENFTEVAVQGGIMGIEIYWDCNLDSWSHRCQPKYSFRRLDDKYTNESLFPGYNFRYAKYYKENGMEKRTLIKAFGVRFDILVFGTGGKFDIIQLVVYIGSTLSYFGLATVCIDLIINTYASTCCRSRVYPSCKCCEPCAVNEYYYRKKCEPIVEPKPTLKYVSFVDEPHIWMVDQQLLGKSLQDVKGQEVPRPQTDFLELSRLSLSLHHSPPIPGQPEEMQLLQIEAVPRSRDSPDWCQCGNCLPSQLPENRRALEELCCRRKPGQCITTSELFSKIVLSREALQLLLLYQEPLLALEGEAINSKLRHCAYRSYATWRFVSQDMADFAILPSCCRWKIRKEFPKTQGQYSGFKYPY

human P2X7 receptor [3] = target: T1, human P2X7 receptor; test: whole-cell patch clamp, Fluo-4 calcium influx and ethidium dye uptake (IC50 from dye uptake, […] ATP); set-up: gene P2RX7; wild-type human P2X7 stably expressed in HEK-293 cells

In the case of `Clc1cccc(-c2nnnn2Cc2cccnc2)c1Cl` [A-438079], the “Fluo-4 calcium influx and ethidium dye uptake; complete block at 10 μM” value (human P2X7 receptor [1]) is reported as 10 µM.
`O=C1CSC(=O)N1C(CCc1ccncc1)COc1ccc(-c2cccc([N+](=O)[O-])c2)cc1` (stereo not shown) [AZ11645373] was tested, and the “ATP-induced ethidium dye uptake; complete block at 10 μM” value (human P2X7 receptor [2]) was 10 µM.
Compound `CCCN(CCC)S(=O)(=O)c1ccc(C(=O)O)cc1` [PRO, Probenecid] has an inhibition at 2500 µM (rat P2X7) of 34% and an IC50 (human P2X7 receptor [3]) of 203 µM.
